Measured values from patent US9550811B2, “Peptide scaffold design” (BIONOR IMMUNO AS, priority 2010, dated 2017).
Where no end group is shown, it is not given here. [ ]: non-standard residue; d: D form. Cit = NC(=O)NCCC[C@H](N)C(=O)O; Nle = CCCC[C@H](N)C(=O)O

Experiments:
Assay in all cases: REVEAL binding assay
Details in all cases: score as percentage of the signal generated by the positive control peptide
HLA-A3 = HLA-A3 (Homo sapiens, UniProt P04439)
How it was run: (§1)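 Synthetic nonamer peptides were tested for their ability to bind and stabilize MHC class I–peptide complexes, detected by the native conformation of the complex. Each peptide is scored relative to a positive-control known T-cell epitope.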

HLA-A2 = HLA-A2 (Homo sapiens, UniProt P04439, D140Y/D185E/D98H/E176V/E277Q/G131W/G231S/I119V/I121R/I166T/I218V/N151K/N90K/P208A/P217A/Q86G/Q94H/R138H/R169H)
How it was run: as §1

HLA-B7 = HLA-B7 (Homo sapiens, UniProt P01889)
HLA-B7, sequence (P61769 21-119): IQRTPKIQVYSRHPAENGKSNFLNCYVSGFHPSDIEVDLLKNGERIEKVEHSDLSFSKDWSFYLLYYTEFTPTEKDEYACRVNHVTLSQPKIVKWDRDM
HLA-B7, sequence (P01889 25-299): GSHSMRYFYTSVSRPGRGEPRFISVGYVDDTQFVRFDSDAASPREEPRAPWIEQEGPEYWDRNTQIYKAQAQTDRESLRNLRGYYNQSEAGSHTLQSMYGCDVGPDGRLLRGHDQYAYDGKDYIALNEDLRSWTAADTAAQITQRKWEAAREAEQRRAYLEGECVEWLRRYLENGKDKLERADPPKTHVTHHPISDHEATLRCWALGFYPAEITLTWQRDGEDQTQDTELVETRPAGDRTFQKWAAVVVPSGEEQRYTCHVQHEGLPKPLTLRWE
How it was run: as §1

HLA-A11 = HLA-A11 (Homo sapiens, UniProt P04439, A114D/F33Y/S129P)
How it was run: as §1

HLA-B27 = HLA-B27 (Homo sapiens, UniProt P01889, D138H/D201E/E176V/E204Q/G107R/H137Y/K202T/N104T/N87E/Q56L/Q94K/R106L/R155S/R180L/S101D/S121N/S48T/Y140D/Y33H/Y91C)
How it was run: as §1

HLA-B35 = test system: HLA-B35
HLA-A1 = test system: HLA-A1
HLA-A24 = test system: HLA-A24
HLA-B14 = test system: HLA-B14
HLA-B40 = test system: HLA-B40
How it was run: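 Score = % of signal from a positive-control T cell epitope, reflecting how well each ninemer stabilizes the native MHC class I–peptide complex. An intermediate control of lower affinity verified each run.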

HLA-B8 = test system: HLA-B8
HLA-B15 = test system: HLA-B15
HLA-A29 = test system: HLA-A29

HLA-A3, sequence (P04439 25-299): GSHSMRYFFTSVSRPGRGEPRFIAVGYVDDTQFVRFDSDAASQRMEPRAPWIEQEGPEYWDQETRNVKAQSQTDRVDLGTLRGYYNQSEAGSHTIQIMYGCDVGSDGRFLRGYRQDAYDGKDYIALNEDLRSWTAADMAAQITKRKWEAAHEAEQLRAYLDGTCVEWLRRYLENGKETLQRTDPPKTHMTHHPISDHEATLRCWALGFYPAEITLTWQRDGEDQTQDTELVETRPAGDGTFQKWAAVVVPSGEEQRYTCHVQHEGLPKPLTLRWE
HLA-A3, sequence (P61769 21-119, further chain): as the sequence (P61769 21-119) above

Substance | REVEAL binding score, HLA-type A3 (HLA-A3) [%] | REVEAL binding score, HLA-type A2 (HLA-A2) [%] | REVEAL binding score, HLA-type B7 (HLA-B7) [%] | REVEAL binding score, HLA-type A11 (HLA-A11) [%] | REVEAL binding score, HLA-type B27 (HLA-B27) [%] | REVEAL binding score, HLA-type B35 (HLA-B35) [%] | REVEAL binding score, HLA-type A1 (HLA-A1) [%] | REVEAL binding score, HLA-type A24 (HLA-A24) [%] | REVEAL binding score, HLA-type B14 (HLA-B14) [%] | REVEAL binding score, HLA-type B40 (HLA-B40) [%] | REVEAL binding score, HLA-type B8 (HLA-B8) [%] | REVEAL binding score, HLA-type B15 (HLA-B15) [%] | REVEAL binding score, HLA-type A29 (HLA-A29) [%]
LPAVGAPIG | 3.02 | 5.60 | 8.12 | 4.95 | 0.49 | 1.06 | 20.57 | 0.61 | 0.12 | 39.31 | 15.87 | 10.10 | 25.32
L[Nle]GYIPLIG | 3.98 | 49.48 | 0.89 | 2.48 | 0.73 | 2.85 | 14.33 | 0.71 | 0.15 | 57.46 | 17.29 | 14.60 | 25.94
MGYIPLVGA | 3.40 | 10.71 | 0.80 | 4.79 | 0.83 | 0.85 | 11.34 | 0.35 | 0.73 | 40.78 | 14.88 | 8.85 | 19.54
NIPGSTYSL | 3.98 | 5.71 | 4.80 | 3.20 | 2.29 | 4.71 | 8.41 | 8.50 | 0.46 | 37.01 | 7.66 | 4.46 | 31.99
NLGKVIDTL | 6.41 | 7.70 | 2.64 | 12.81 | 2.64 | 4.39 | 18.14 | 1.16 | 0.57 | 53.82 | 16.86 | 12.59 | 10.67
NLGRVIETL | 2.86 | 11.97 | 1.47 | 4.53 | 1.66 | 2.82 | 18.24 | 0.86 | 0.07 | 38.91 | 15.58 | 16.29 | 16.44
NLPGCSFSI | 8.15 | 47.28 | 1.54 | 3.47 | 3.37 | 5.31 | 13.15 | 85.91 | 0.36 | 60.68 | 9.89 | 3.11 | 22.34
NYATGNLPG | 8.65 | 3.94 | 0.51 | 4.69 | 2.33 | 6.44 | 11.16 | 1.13 | 0.79 | 75.28 | 9.96 | 6.06 | 34.26
PRLGVRATR | 3.63 | 6.85 | 42.64 | 2.73 | 0.86 | 1.65 | 17.77 | 0.97 | 0.14 | 14.52 | 11.46 | 10.04 | 13.35
P[Cit]IGVRAT[Cit] | 2.52 | 7.36 | 1.91 | 1.72 | 0.94 | 2.45 | 18.83 | 0.21 | 0.19 | 49.29 | 9.47 | 12.64 | 14.14
QIIGGNYLI | 6.30 | 73.54 | 52.04 | 4.06 | 0.91 | 8.99 | 21.63 | 12.60 | 0.40 | 83.60 | 10.61 | 29.59 | 13.60
QIVGGVYLL | 2.36 | 57.04 | 28.66 | 1.96 | 0.60 | 4.01 | 20.25 | 1.01 | 0.37 | 24.51 | 13.15 | 15.07 | 13.36
RALAHGVRV | 2.51 | 8.69 | 2.55 | 4.45 | 6.37 | 6.07 | 20.77 | 0.84 | 0.46 | 70.26 | 18.08 | 11.84 | 29.73
RNLGKVIDT | 3.15 | 6.42 | 2.42 | 6.22 | 2.73 | 4.40 | 18.90 | 1.04 | 0.61 | 48.14 | 13.80 | 11.79 | 10.18
RNLGRVIET | 5.52 | 5.96 | 0.71 | 13.68 | 0.91 | 2.34 | 15.93 | 0.51 | 0.26 | 27.57 | 15.51 | 8.84 | 15.13
